Values of other authors, collected in US20240199566A1, “CATALYTIC SYNTHESIS OF DELTA-VALEROLACTONE (DVL) FROM FURFURAL-DERIVED 2-HYDROXYTETRAHYDROPYRAN (HTHP)” (Wisconsin Alumni Research Foundation, priority 2022, published 2024).

Conditions: stated as a property, no test described

C1=COCCC1 [DHP, 3,4-dihydropyran]
solubility in water: < 1 wt %
